Reference: paper PMC5609601 (Brazilian Journal of Medical and Biological Research, 2017)
Entries after “also recorded” stand apart in the source; their conditions may differ. Like-named read-outs stand apart in the source and are kept apart here.

Tests used:
[1] = Adsorption of the constituents by the intestinal wall; assay type: in vitro ADME, rat; details: for Absorption in the intestinal wall: curcumin SEDDS; for Concentration in incubation solution with intestinal wall: 37.5±0.5°C
[2] = biological target: MRP2 (Rattus norvegicus, UniProt Q63120); assay type: in vivo; details: for Substrate of MRP2: inferred from probenecid effect
[3] = system: P-gp; assay type: in vivo, rat; details: for Influence of verapamil hydrochloride on absorption / Influence of verapamil hydrochloride on Ka / Influence of verapamil hydrochloride on Papp / Influence of verapamil hydrochloride on A%: ileum; for Influence of verapamil hydrochloride on Ka / Influence of verapamil hydrochloride on Papp: high-concentration inhibitor; for Substrate of P-glycoprotein: inferred from verapamil hydrochloride effect
[4] = system: rat small intestines; assay type: in vivo; details: duodenum; for Influence of 2,4-dinitrophenol on Ka / Influence of 2,4-dinitrophenol on Papp / Influence of 2,4-dinitrophenol on A%: compared with the group without inhibitor; for Influence of 2,4-dinitrophenol on A%: 1.0, 2.0, 5.0 mmol/L
[5] = Stability of curcumin constituents; assay type: physicochemical, rat; details: for Concentration in blank intestinal perfusion fluid: 37.5±0.5°C, drug-containing SEDDS; for Stability in pH 6.8 K-R blank intestinal perfusion fluid: within 8 h, curcumin SEDDS
[6] = system: rat small intestines; assay: In situ single pass intestinal perfusion: absorption site and drug concentration; assay type: in vivo; details: for Comparison of absorption among intestinal segments / Concentration dependence of absorption: duodenum; for Comparison of absorption among intestinal segments: jejunum, ileum, colon; for Comparison of absorption among intestinal segments / Main intestinal absorption site: higher concentration group; for Concentration dependence of absorption: low, medium, high, higher concentrations; for Main intestinal absorption site: different intestinal segments; for Transport (absorption) mechanism: rat small intestine
[7] = jejunum, high-concentration probenecid
[8] = jejunum, probenecid 0.02, 0.04, 0.08 mmol/L

Sequence of MRP2 (Q63120 whole entry): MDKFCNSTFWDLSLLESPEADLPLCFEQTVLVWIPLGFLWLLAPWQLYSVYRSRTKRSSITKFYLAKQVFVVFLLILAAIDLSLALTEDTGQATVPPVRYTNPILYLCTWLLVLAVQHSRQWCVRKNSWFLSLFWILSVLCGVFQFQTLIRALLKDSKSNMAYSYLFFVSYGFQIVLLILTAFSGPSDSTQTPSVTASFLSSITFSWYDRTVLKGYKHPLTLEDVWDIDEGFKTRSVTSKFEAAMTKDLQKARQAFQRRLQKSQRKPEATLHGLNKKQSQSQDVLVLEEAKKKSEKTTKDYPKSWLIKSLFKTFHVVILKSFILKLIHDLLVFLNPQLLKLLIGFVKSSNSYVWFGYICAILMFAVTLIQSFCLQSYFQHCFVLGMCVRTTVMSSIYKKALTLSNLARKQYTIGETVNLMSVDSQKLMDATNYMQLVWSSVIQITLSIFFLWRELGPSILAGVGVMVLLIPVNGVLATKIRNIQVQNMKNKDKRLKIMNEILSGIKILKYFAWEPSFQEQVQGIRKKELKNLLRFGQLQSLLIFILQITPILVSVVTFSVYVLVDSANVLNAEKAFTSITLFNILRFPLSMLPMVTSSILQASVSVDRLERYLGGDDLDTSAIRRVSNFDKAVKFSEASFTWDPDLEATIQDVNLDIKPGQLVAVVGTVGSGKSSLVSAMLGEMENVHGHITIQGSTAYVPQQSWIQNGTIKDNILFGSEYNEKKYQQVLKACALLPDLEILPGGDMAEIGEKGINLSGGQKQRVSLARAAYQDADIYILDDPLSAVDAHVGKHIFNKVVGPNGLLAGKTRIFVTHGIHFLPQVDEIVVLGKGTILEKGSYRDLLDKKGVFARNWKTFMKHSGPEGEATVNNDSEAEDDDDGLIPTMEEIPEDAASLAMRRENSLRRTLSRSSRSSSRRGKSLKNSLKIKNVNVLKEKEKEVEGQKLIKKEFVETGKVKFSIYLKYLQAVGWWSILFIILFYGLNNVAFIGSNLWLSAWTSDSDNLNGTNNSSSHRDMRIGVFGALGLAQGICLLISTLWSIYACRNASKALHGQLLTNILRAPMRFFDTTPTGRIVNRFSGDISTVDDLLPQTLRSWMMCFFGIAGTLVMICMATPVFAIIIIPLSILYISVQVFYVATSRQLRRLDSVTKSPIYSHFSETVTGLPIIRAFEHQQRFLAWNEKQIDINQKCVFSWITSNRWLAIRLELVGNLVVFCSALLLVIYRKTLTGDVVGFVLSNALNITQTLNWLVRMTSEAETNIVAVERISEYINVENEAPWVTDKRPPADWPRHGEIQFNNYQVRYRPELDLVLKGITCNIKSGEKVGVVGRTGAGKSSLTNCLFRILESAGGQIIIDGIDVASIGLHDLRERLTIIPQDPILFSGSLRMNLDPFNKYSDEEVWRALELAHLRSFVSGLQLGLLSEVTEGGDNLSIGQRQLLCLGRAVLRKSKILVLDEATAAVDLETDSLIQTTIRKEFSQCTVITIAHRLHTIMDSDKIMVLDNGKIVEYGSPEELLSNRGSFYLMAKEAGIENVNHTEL

Compound	Absorption in the intestinal wall [1]	Concentration in incubation solution with intestinal wall ([1]; time 0 min)	Concentration in incubation solution with intestinal wall ([1]; time 30 min)	Concentration in incubation solution with intestinal wall ([1]; time 60 min)	Concentration in incubation solution with intestinal wall ([1]; time 90 min)	Concentration in incubation solution with intestinal wall ([1]; time 120 min)	Substrate of MRP2 [2]	Influence of probenecid on Papp [2, 7]	Influence of probenecid on A% [2, 8]	Influence of verapamil hydrochloride on absorption [3]	Influence of verapamil hydrochloride on Ka [3]	Influence of verapamil hydrochloride on Papp [3]	Substrate of P-glycoprotein [3]	Concentration in blank intestinal perfusion fluid ([5]; time 0 h)	Concentration in blank intestinal perfusion fluid ([5]; time 1 h)	Concentration in blank intestinal perfusion fluid ([5]; time 2 h)	Concentration in blank intestinal perfusion fluid ([5]; time 4 h)	Concentration in blank intestinal perfusion fluid ([5]; time 8 h)	Stability in pH 6.8 K-R blank intestinal perfusion fluid [5]	Concentration dependence of absorption [6]	other results
O=C(/C=C/c1ccc(O)cc1)CC(=O)/C=C/c1ccc(O)cc1 [BDMCur, bisdemethoxycurcumin]	no obvious absorption	27.300 µg/mL	27.288 µg/mL	27.247 µg/mL	27.173 µg/mL	26.253 µg/mL	may be the substrates	significantly increased	significantly increased	significantly improve the absorption	significantly accelerated	significantly accelerated	may be the substrates	26 µg/mL	26 µg/mL	26 µg/mL	26 µg/mL	25 µg/mL	stable	concentration inhibiting effect	Change of A% when probenecid concentration was further increased ([2]; jejunum, above medium concentration): barely changed; Influence of probenecid on Ka [2, 7]: significantly increased; Influence of probenecid on A% ([2]; jejunum, medium-concentration probenecid): significantly increased; Influence of verapamil hydrochloride on A% ([3]; verapamil hydrochloride 0.05, 0.1, 0.5 mmol/L): almost no influence; Energy dependence of intestinal absorption process [4]: energy-dependent action; Influence of 2,4-dinitrophenol on Ka [4]: decreased significantly (P<0.05); Influence of 2,4-dinitrophenol on Papp [4]: decreased significantly (P<0.05); Influence of 2,4-dinitrophenol on A% [4]: decreased in an extremely significant manner (P<0.01); Comparison of absorption among intestinal segments [6]: not significantly different (P>0.05); also recorded: better in the duodenum and relatively poorer in the ileum; Main intestinal absorption site [6]: duodenum; Absorption in duodenum compared to colon ([6]; one-way ANOVA): increased (P<0.01) in an extremely significant manner; Transport (absorption) mechanism [6]: active transport in the carrier-mediated transport
COc1cc(/C=C/C(=O)CC(=O)/C=C/c2ccc(O)c(OC)c2)ccc1O [Cur, curcumin]	–	719.250 µg/mL	717.346 µg/mL	716.858 µg/mL	716.019 µg/mL	701.751 µg/mL	–	significantly increased	–	–	–	significantly accelerated	–	685 µg/mL	684 µg/mL	682 µg/mL	678 µg/mL	668 µg/mL	stable	concentration inhibiting effect	Change of A% with probenecid concentration ([2]; jejunum): increased with the increase in probenecid concentration; Change of Ka with probenecid concentration ([2]; jejunum): increased with the increase in probenecid concentration
COc1cc(/C=C/C(O)=C/C(=O)/C=C/c2ccc(O)cc2)ccc1O [DMCur, demethoxycurcumin]	no obvious absorption	166.950 µg/mL	165.354 µg/mL	164.023 µg/mL	163.724 µg/mL	162.104 µg/mL	may be the substrates	significantly increased	significantly increased	significantly improve the absorption	significantly accelerated	significantly accelerated	may be the substrates	159 µg/mL	158 µg/mL	157 µg/mL	156 µg/mL	154 µg/mL	stable	saturation phenomenon	Change of A% with probenecid concentration ([2]; jejunum): increased with the increase in probenecid concentration; Change of Ka with probenecid concentration ([2]; jejunum): increased with the increase in probenecid concentration; Influence of verapamil hydrochloride on A% ([3]; medium-concentration and high-concentration inhibitor): significant increase; Energy dependence of intestinal absorption process [4]: energy-dependent action; Influence of 2,4-dinitrophenol on Ka [4]: decreased significantly (P<0.05); Influence of 2,4-dinitrophenol on Papp [4]: decreased significantly (P<0.05); Influence of 2,4-dinitrophenol on A% [4]: decreased in an extremely significant manner (P<0.01); Comparison of absorption among intestinal segments [6]: duodenum > colon ≈ jejunum > ileum; also recorded: better in the duodenum and relatively poorer in the ileum; Main intestinal absorption site [6]: duodenum; Absorption in duodenum compared to colon ([6]; one-way ANOVA): increased significantly (P<0.05); Absorption in duodenum compared with ileum ([6]; one-way ANOVA): increased (P<0.01) in an extremely significant manner; Absorption in jejunum compared with ileum ([6]; one-way ANOVA): increased significantly (P<0.05); Transport (absorption) mechanism [6]: active transport in the carrier-mediated transport
